Among the data in ChEMBL document CHEMBL5678818, “Discovery of potent SOS1 inhibitors that block RAS activation via disruption of the RAS-SOS1 interaction” (Proc Natl Acad Sci U S A, 2019) are Activity values, retold here.

For test [1], the target named is Dual specificity protein kinase CLK4 (Homo sapiens) (UniProt Q9HAZ1). Kind of test: Inhibition of CLK4 (unknown origin) assessed as residual activity at 1000 nM by KINOMEscan analysis relative to control.
The test system of test [2] is Epidermal growth factor receptor (Homo sapiens), P00533 [UNDEFINED MUTATION]. Kind of test: Inhibition of EGFR E746-A750del mutant (unknown origin) assessed as residual activity at 1000 nM by KINOMEscan analysis relative to control.
The subject of test [3] is Receptor-type tyrosine-protein kinase FLT3 (Homo sapiens), P36888 [UNDEFINED MUTATION]. Kind of test: Inhibition of FLT3 ITD mutant (unknown origin) assessed as residual activity at 1000 nM by KINOMEscan analysis relative to control.
The target of test [4] is T1, Mitogen-activated protein kinase kinase kinase 5 (Homo sapiens) (UniProt Q99683).
T1 sequence (whole entry): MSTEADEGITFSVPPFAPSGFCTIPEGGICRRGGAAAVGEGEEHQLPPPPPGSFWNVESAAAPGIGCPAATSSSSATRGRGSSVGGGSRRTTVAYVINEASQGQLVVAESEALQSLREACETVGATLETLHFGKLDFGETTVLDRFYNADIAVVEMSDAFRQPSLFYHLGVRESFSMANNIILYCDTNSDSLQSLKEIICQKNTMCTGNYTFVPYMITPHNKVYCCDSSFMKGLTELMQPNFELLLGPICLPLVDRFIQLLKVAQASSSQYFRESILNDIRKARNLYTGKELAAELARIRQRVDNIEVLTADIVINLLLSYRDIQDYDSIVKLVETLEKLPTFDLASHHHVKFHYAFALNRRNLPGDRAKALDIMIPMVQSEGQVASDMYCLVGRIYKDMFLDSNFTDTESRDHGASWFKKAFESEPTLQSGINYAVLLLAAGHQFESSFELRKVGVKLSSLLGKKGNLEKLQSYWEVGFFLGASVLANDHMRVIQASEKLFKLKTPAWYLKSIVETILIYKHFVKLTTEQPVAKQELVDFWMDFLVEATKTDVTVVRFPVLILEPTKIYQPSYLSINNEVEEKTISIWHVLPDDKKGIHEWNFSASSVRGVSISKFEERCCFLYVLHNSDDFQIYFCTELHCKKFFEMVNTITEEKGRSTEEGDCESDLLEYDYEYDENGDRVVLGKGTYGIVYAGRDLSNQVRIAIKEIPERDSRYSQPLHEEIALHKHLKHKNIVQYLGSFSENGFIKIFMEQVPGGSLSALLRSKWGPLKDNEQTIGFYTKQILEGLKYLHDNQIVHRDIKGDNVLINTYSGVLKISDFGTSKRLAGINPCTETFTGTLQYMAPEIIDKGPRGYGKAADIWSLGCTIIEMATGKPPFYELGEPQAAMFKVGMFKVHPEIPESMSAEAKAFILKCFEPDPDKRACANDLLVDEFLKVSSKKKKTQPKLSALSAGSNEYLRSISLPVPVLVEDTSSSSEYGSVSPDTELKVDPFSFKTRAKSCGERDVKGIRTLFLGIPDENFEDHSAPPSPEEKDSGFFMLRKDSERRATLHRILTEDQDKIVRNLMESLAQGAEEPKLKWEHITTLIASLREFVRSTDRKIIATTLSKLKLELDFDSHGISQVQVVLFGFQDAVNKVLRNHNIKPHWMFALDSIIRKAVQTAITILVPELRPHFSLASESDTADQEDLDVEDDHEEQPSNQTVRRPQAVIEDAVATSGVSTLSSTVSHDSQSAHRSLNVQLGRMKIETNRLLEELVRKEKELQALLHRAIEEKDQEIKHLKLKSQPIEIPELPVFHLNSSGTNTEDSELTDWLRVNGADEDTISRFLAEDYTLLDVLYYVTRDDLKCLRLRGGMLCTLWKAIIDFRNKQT
Kind of test: Inhibition of ASK1 (unknown origin) assessed as residual activity at 1000 nM by KINOMEscan analysis relative to control.

Test [5] deals with BDNF/NT-3 growth factors receptor (Homo sapiens) (UniProt Q16620). Kind of test: Inhibition of TRKB (unknown origin) assessed as residual activity at 1000 nM by KINOMEscan analysis relative to control.
Test [6] concerns the target T2, 3-phosphoinositide-dependent protein kinase 1 (Homo sapiens) (UniProt O15530).
T2 sequence (whole entry): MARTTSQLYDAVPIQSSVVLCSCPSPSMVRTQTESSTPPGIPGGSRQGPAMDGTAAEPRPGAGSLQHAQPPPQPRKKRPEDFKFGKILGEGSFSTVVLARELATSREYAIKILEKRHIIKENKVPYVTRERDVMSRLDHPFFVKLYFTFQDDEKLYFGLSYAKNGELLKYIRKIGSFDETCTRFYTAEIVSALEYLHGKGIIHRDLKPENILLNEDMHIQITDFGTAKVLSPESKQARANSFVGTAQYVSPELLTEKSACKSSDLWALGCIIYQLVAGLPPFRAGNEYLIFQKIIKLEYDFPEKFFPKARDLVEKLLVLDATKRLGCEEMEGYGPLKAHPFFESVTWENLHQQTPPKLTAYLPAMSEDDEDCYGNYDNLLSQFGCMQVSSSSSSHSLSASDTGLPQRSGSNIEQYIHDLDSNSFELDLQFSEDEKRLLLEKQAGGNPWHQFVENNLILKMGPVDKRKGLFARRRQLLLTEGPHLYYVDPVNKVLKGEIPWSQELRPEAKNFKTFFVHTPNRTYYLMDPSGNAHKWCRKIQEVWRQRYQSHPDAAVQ
Kind of test: Inhibition of PDPK1 (unknown origin) assessed as residual activity at 1000 nM by KINOMEscan analysis relative to control.

Test [7] deals with Serine/threonine-protein kinase/endoribonuclease IRE1 (Homo sapiens) (UniProt O75460). Kind of test: Inhibition of ERN1 (unknown origin) assessed as residual activity at 1000 nM by KINOMEscan analysis relative to control.
For test [8], the target named is Mitogen-activated protein kinase 4 (Homo sapiens) (UniProt P31152). Kind of test: Inhibition of ERK4 (unknown origin) assessed as residual activity at 1000 nM by KINOMEscan analysis relative to control.
The target in test [9] is Atypical kinase COQ8A, mitochondrial (Homo sapiens) (UniProt Q8NI60). Kind of test: Inhibition of ADCK3 (unknown origin) assessed as residual activity at 1000 nM by KINOMEscan analysis relative to control.
The target of test [10] is Insulin-like growth factor 1 receptor (Homo sapiens) (UniProt P08069). Kind of test: Inhibition of IGF1R (unknown origin) assessed as residual activity at 1000 nM by KINOMEscan analysis relative to control.
Chain of Insulin-like growth factor 1 receptor (Homo sapiens) (P08069 31-736 limits assumed): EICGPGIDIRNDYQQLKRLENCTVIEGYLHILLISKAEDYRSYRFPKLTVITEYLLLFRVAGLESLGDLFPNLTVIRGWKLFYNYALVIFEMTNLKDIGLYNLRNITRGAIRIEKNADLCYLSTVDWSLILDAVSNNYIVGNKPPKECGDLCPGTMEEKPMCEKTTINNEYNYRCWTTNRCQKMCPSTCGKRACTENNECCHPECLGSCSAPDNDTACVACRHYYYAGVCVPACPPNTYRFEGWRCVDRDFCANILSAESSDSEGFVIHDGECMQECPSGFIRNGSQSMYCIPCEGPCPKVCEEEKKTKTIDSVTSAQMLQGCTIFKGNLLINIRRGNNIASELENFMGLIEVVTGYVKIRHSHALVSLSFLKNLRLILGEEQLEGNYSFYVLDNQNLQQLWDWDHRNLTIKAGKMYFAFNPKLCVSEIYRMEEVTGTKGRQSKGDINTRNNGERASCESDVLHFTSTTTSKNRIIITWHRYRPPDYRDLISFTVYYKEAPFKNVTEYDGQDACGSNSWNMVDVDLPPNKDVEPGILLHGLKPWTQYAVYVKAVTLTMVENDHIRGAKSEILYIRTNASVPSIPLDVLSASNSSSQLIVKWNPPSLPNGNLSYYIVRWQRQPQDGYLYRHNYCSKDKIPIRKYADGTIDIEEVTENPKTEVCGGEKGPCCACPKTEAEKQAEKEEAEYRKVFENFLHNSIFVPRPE
Chain of Insulin-like growth factor 1 receptor (Homo sapiens) (P08069 741-1367 limits assumed): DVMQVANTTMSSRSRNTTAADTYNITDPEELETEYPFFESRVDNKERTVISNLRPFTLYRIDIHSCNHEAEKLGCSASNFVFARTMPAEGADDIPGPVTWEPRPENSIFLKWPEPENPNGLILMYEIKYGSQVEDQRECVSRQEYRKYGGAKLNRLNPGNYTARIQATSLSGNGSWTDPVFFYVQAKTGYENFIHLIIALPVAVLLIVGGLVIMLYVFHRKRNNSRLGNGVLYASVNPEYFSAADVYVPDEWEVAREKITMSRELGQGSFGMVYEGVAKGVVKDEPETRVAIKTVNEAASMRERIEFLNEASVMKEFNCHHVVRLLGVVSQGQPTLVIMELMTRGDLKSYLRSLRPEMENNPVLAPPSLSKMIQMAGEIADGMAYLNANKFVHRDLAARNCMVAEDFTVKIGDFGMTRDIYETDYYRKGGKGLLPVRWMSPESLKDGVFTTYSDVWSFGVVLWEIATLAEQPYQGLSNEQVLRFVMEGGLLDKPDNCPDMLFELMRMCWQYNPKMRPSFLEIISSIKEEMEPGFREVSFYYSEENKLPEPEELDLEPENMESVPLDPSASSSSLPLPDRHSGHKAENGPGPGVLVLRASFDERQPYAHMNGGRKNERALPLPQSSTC

Chain of Mitogen-activated protein kinase 4 (Homo sapiens) (P31152 whole entry): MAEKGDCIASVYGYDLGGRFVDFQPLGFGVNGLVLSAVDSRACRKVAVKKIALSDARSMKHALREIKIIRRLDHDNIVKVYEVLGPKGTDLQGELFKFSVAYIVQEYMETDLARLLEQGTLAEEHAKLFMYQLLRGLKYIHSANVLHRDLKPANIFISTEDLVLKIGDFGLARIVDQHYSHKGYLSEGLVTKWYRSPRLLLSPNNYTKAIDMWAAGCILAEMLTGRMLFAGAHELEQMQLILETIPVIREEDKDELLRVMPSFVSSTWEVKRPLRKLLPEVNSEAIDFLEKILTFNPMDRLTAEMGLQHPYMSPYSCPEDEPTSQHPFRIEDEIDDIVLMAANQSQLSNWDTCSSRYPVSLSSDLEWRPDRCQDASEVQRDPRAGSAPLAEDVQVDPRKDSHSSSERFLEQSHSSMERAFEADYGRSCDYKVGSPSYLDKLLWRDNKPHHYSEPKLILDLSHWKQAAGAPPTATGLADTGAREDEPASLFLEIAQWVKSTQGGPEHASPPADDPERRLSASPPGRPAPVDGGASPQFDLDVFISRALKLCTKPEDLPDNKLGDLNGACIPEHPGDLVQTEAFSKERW
Chain of Atypical kinase COQ8A, mitochondrial (Homo sapiens) (Q8NI60 163-647 limits assumed): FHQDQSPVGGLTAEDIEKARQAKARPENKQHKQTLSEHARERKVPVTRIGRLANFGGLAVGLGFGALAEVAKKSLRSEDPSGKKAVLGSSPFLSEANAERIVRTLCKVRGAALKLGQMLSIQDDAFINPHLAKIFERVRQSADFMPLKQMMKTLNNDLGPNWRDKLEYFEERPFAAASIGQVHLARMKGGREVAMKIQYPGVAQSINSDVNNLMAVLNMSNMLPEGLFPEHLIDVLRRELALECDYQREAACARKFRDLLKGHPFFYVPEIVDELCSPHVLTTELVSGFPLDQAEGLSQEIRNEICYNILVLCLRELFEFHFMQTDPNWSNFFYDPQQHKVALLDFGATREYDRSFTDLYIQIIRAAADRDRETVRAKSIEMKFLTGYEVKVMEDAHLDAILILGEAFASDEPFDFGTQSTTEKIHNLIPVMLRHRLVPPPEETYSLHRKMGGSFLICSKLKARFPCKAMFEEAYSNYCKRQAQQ
Chain of BDNF/NT-3 growth factors receptor (Homo sapiens) (Q16620 32-822 limits assumed): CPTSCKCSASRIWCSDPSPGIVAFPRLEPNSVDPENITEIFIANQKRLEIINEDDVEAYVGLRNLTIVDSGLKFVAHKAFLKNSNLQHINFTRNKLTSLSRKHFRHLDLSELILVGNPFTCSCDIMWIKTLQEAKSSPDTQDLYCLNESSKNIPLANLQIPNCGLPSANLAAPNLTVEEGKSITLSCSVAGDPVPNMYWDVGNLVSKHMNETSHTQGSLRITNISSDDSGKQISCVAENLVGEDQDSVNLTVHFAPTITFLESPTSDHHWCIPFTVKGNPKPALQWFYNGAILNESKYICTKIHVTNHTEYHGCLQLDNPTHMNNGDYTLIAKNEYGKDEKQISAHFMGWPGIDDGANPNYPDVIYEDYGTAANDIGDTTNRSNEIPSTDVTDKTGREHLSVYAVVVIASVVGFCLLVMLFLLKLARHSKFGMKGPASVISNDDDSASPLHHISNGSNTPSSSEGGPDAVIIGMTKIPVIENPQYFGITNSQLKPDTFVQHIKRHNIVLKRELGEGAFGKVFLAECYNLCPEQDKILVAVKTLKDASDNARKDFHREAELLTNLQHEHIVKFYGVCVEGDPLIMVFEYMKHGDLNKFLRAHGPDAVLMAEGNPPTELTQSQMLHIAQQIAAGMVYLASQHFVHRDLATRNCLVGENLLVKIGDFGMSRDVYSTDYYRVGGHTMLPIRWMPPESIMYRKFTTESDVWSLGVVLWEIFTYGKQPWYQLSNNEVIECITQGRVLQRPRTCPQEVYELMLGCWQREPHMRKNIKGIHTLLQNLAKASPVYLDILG
Chain of Serine/threonine-protein kinase/endoribonuclease IRE1 (Homo sapiens) (O75460 19-977 limits assumed): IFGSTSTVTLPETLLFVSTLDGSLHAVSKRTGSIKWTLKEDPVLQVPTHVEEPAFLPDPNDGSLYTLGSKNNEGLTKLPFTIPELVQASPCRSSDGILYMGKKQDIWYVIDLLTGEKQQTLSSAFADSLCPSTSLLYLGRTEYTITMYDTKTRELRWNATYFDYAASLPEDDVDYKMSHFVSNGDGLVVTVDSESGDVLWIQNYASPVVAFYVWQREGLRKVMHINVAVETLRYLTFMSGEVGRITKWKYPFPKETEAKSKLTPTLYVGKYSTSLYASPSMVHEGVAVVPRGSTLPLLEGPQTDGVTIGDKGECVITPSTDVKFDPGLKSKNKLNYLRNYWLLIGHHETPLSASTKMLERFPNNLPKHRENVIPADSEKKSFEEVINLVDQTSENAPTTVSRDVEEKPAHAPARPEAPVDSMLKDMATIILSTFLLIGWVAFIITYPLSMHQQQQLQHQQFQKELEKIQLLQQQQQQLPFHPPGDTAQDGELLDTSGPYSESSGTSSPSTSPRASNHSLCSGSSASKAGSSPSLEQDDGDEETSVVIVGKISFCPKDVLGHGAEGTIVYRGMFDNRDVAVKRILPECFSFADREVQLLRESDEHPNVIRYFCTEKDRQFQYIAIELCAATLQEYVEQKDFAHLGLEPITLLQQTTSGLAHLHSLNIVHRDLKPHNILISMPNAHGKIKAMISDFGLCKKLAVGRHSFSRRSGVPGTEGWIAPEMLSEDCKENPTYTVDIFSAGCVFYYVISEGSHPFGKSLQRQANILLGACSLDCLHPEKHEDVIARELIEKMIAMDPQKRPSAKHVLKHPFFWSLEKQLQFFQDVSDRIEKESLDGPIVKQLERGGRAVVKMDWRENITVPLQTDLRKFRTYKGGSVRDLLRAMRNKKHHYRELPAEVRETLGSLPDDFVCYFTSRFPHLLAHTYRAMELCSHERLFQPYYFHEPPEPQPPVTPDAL
Chain of Dual specificity protein kinase CLK4 (Homo sapiens) (Q9HAZ1 whole entry, looked up): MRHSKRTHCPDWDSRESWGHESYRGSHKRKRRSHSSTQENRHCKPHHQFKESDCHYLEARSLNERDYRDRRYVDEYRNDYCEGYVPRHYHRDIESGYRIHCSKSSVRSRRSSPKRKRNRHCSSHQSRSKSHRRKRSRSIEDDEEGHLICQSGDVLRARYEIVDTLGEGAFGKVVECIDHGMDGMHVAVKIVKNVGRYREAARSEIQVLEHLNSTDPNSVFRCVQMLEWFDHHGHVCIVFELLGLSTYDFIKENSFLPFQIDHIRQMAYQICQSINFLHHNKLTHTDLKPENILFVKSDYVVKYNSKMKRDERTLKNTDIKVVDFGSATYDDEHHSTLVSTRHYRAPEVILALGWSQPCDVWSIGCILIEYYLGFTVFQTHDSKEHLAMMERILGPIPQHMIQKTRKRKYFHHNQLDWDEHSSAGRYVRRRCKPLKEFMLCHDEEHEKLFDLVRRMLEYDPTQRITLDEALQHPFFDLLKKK

As for `COc1cc2nc(C)nc(N[C@H](C)c3cccc(-c4cn[nH]c4)c3)c2cc1OC`, the Activity in test [1] came to 93%; in test [2], 100%; in [3], 58%; in test [4], 100%; in test [5] it was 98%; in test [6] it was 97%. Also, the Activity in test [7] was 94%; in [8], 92%; in test [9], 98%; in [10] it was 100%.
For the compound `COc1cc2ncnc(N[C@H](C)c3cccc4ccccc34)c2cc1OC`, the Activity in [1] is 100%; in [2], 5.9%; in test [3], 96%; in [4] it was 76%; in [5], 100%; in test [6], 88%. The Activity in test [7] amounted to 92%; in test [8], 89%; in [9] it was 94%; in test [10] it was 100%.
